{
  "source": "patent US20230416203A1",
  "about": "“POTENT AND SELECTIVE INHIBITORS OF THE CALCIUM-ACTIVATED POTASSIUM CHANNEL, KCA3.1, FOR USE AS PLATFORM THERAPEUTICS” (priority 2020, published 2023)",
  "assay": "Two-week non-GLP toxicology in mice (clinical signs, body weight, body weight gain, food consumption, hematology, clinical chemistry, organ weights, histopathology)",
  "key": {"[1]": {"conditions": "female mice, 50 mg/kg:BID oral, 2 weeks, mean"}, "[2]": {"conditions": "male mice, 25 mg/kg/BID oral, 2 weeks, mean"}, "[3]": {"conditions": "male mice, 50 mg/kg/BID oral, 2 weeks, mean"}, "[4]": {"conditions": "oral, twice daily, 25 and 50 mg/kg, 2 weeks, mice"}},
  "experimental": "Each group contained 6 mice. The animals were analyzed throughout the study, and blood and tissues were analyzed at the end of the study.",
  "data": [
    {"smiles": "COC(=O)C1=CNC=C(C(=O)OC)C1c1ccc(F)c(C(F)(F)F)c1", "note": "[Compound 103, Dimethyl 4-(4-fluoro-3-(trifluoromethyl)phenyl)-1,4-dihydropyridine-3,5-dicarboxylate]", "values": [
      {"measurement": "Body weight gain (%)", "setting": "female mice, 50 mg/kg/BID oral, treatment day 1 to 14, mean", "result": 5.87, "unit": "%"},
      {"measurement": "Organ weights relative to body weight (%), Adrenals", "setting": "[1]", "result": 0.035, "unit": "%"},
      {"measurement": "Organ weights relative to body weight (%), Brain", "setting": "[1]", "result": 2.175, "unit": "%"},
      {"measurement": "Organ weights relative to body weight (%), Heart", "setting": "[1]", "result": 0.532, "unit": "%"},
      {"measurement": "Organ weights relative to body weight (%), Kidneys", "setting": "[1]", "result": 1.375, "unit": "%"},
      {"measurement": "Organ weights relative to body weight (%), Liver", "setting": "[1]", "result": 7.356, "unit": "%"},
      {"measurement": "Organ weights relative to body weight (%), Ovaries", "setting": "[1]", "result": 0.066, "unit": "%"},
      {"measurement": "Organ weights relative to body weight (%), Spleen", "setting": "[1]", "result": 0.490, "unit": "%"},
      {"measurement": "Organ weights relative to body weight (%), Thymus", "setting": "[1]", "result": 0.220, "unit": "%"},
      {"measurement": "Organ weights relative to body weight (%), U", "setting": "[1]", "result": 0.277, "unit": "%"},
      {"measurement": "clinical chemistry assessment", "setting": "male and female mice, 25 and 50 mg/kg BID, 2 weeks", "result": "no significant toxicological change"},
      {"measurement": "ALB", "setting": "[2]", "result": 2.66},
      {"measurement": "ALP", "setting": "[2]", "result": 207.96},
      {"measurement": "ALT", "setting": "[2]", "result": 42.36},
      {"measurement": "AST", "setting": "[2]", "result": 79.38},
      {"measurement": "BUN", "setting": "[2]", "result": 19.73},
      {"measurement": "Basophils", "setting": "[2]", "result": 0.00},
      {"measurement": "CREA", "setting": "[2]", "result": 0.14},
      {"measurement": "Eosinophils", "setting": "[2]", "result": 0.67},
      {"measurement": "GLU", "setting": "[2]", "result": 157.88, "unit": "mg/dL"},
      {"measurement": "HCT", "setting": "[2]", "result": 31.43, "unit": "%"},
      {"measurement": "HGB", "setting": "[2]", "result": 15.37, "unit": "g/dL"},
      {"measurement": "LDLC", "setting": "[2]", "result": 10.02, "unit": "mg/dL"},
      {"measurement": "Lymphocytes", "setting": "[2]", "result": 82.33},
      {"measurement": "MCH", "setting": "[2]", "result": 23.27, "unit": "pg"},
      {"measurement": "MCHC", "setting": "[2]", "result": 48.87, "unit": "g/dL"},
      {"measurement": "MCV", "setting": "[2]", "result": 47.70, "unit": "fL"},
      {"measurement": "Monosytes", "setting": "[2]", "result": 1.33},
      {"measurement": "Neutrophils", "setting": "[2]", "result": 15.67},
      {"measurement": "Organ weights relative to body weight (%), Adrenals", "setting": "[2]", "result": 0.024, "unit": "%"},
      {"measurement": "Organ weights relative to body weight (%), Brain", "setting": "[2]", "result": 2.065, "unit": "%"},
      {"measurement": "Organ weights relative to body weight (%), Epididy", "setting": "[2]", "result": 0.333, "unit": "%"},
      {"measurement": "Organ weights relative to body weight (%), Heart", "setting": "[2]", "result": 0.500, "unit": "%"},
      {"measurement": "Organ weights relative to body weight (%), Kidneys", "setting": "[2]", "result": 1.490, "unit": "%"},
      {"measurement": "Organ weights relative to body weight (%), Liver", "setting": "[2]", "result": 7.093, "unit": "%"},
      {"measurement": "Organ weights relative to body weight (%), Spleen", "setting": "[2]", "result": 0.351, "unit": "%"},
      {"measurement": "Organ weights relative to body weight (%), Testes", "setting": "[2]", "result": 0.582, "unit": "%"},
      {"measurement": "Organ weights relative to body weight (%), Thy", "setting": "[2]", "result": 0.136, "unit": "%"},
      {"measurement": "PLT", "setting": "[2]", "result": "591.33 10^3/μl"},
      {"measurement": "RBC", "setting": "[2]", "result": 6.59},
      {"measurement": "Reticuloxyte Count", "setting": "[2]", "result": 2.90},
      {"measurement": "TBIL", "setting": "[2]", "result": "0.09*↓ mg/dL"},
      {"measurement": "TGL", "setting": "[2]", "result": 73.46, "unit": "mg/dL"},
      {"measurement": "TP", "setting": "[2]", "result": "4.13*↑ g/dL"},
      {"measurement": "Urea", "setting": "[2]", "result": 42.29, "unit": "mg/dL"},
      {"measurement": "WBC", "setting": "[2]", "result": "3.70*↓ 10^3/μl"},
      {"measurement": "Food consumption, Average Feed Intake/Animal", "setting": "male mice, 25 mg/kg/BID oral, treatment day 1 to 4", "result": 9.9, "unit": "g/animal"},
      {"measurement": "Body weight gain (%)", "setting": "male mice, 25 mg/kg/BID oral, treatment day 1 to 4, mean", "result": 3.45, "unit": "%"},
      {"measurement": "Food consumption, Average Feed Intake/Animal", "setting": "male mice, 25 mg/kg/BID oral, treatment day 1 to 8", "result": 14.8, "unit": "g/animal"},
      {"measurement": "Body weight gain (%)", "setting": "male mice, 25 mg/kg/BID oral, treatment day 1 to 8, mean", "result": 5.68, "unit": "%"},
      {"measurement": "Food consumption, Average Feed Intake/Animal", "setting": "male mice, 25 mg/kg/BID oral, treatment day 1 to 11", "result": 9.5, "unit": "g/animal"},
      {"measurement": "Body weight gain (%)", "setting": "male mice, 25 mg/kg/BID oral, treatment day 1 to 11, mean", "result": 5.86, "unit": "%"},
      {"measurement": "Food consumption, Average Feed Intake/Animal", "setting": "male mice, 25 mg/kg/BID oral, treatment day 1 to 14", "result": 10.4, "unit": "g/animal"},
      {"measurement": "Body weight gain (%)", "setting": "male mice, 25 mg/kg/BID oral, treatment day 1 to 14, mean", "result": 7.91, "unit": "%"},
      {"measurement": "ALB", "setting": "[3]", "result": 2.43},
      {"measurement": "ALP", "setting": "[3]", "result": 180.63},
      {"measurement": "ALT", "setting": "[3]", "result": 59.72},
      {"measurement": "AST", "setting": "[3]", "result": 88.76},
      {"measurement": "BUN", "setting": "[3]", "result": 22.97},
      {"measurement": "Basophils", "setting": "[3]", "result": 0.00},
      {"measurement": "CREA", "setting": "[3]", "result": "0.12*↓"},
      {"measurement": "Eosinophils", "setting": "[3]", "result": 0.00},
      {"measurement": "GLU", "setting": "[3]", "result": 152.77, "unit": "mg/dL"},
      {"measurement": "HCT", "setting": "[3]", "result": 30.70, "unit": "%"},
      {"measurement": "HGB", "setting": "[3]", "result": 13.73, "unit": "g/dL"},
      {"measurement": "LDLC", "setting": "[3]", "result": 9.84, "unit": "mg/dL"},
      {"measurement": "Lymphocytes", "setting": "[3]", "result": 78.00},
      {"measurement": "MCH", "setting": "[3]", "result": 21.70, "unit": "pg"},
      {"measurement": "MCHC", "setting": "[3]", "result": 44.77, "unit": "g/dL"},
      {"measurement": "MCV", "setting": "[3]", "result": "48.40*↑ fL"},
      {"measurement": "Monosytes", "setting": "[3]", "result": 2.00},
      {"measurement": "Neutrophils", "setting": "[3]", "result": 20.00},
      {"measurement": "Organ weights relative to body weight (%), Adrenals", "setting": "[3]", "result": 0.030, "unit": "%"},
      {"measurement": "Organ weights relative to body weight (%), Brain", "setting": "[3]", "result": 2.017, "unit": "%"},
      {"measurement": "Organ weights relative to body weight (%), Epididy", "setting": "[3]", "result": 0.298, "unit": "%"},
      {"measurement": "Organ weights relative to body weight (%), Heart", "setting": "[3]", "result": 0.541, "unit": "%"},
      {"measurement": "Organ weights relative to body weight (%), Kidneys", "setting": "[3]", "result": 1.467, "unit": "%"},
      {"measurement": "Organ weights relative to body weight (%), Liver", "setting": "[3]", "result": 7.014, "unit": "%"},
      {"measurement": "Organ weights relative to body weight (%), Spleen", "setting": "[3]", "result": 0.461, "unit": "%"},
      {"measurement": "Organ weights relative to body weight (%), Testes", "setting": "[3]", "result": 0.773, "unit": "%"},
      {"measurement": "Organ weights relative to body weight (%), Thy", "setting": "[3]", "result": 0.116, "unit": "%"},
      {"measurement": "PLT", "setting": "[3]", "result": "661.00 10^3/μl"},
      {"measurement": "RBC", "setting": "[3]", "result": 6.34},
      {"measurement": "Reticuloxyte Count", "setting": "[3]", "result": 2.67},
      {"measurement": "TBIL", "setting": "[3]", "result": "0.08*↓ mg/dL"},
      {"measurement": "TGL", "setting": "[3]", "result": 84.42, "unit": "mg/dL"},
      {"measurement": "TP", "setting": "[3]", "result": "4.19*↑ g/dL"},
      {"measurement": "Urea", "setting": "[3]", "result": 47.30, "unit": "mg/dL"},
      {"measurement": "WBC", "setting": "[3]", "result": "2.27*↓ 10^3/μl"},
      {"measurement": "Food consumption, Average Feed Intake/Animal", "setting": "male mice, 50 mg/kg/BID oral, treatment day 1 to 4", "result": 8.7, "unit": "g/animal"},
      {"measurement": "Body weight gain (%)", "setting": "male mice, 50 mg/kg/BID oral, treatment day 1 to 4, mean", "result": "−0.49*1%"},
      {"measurement": "Food consumption, Average Feed Intake/Animal", "setting": "male mice, 50 mg/kg/BID oral, treatment day 1 to 8", "result": 14.4, "unit": "g/animal"},
      {"measurement": "Body weight gain (%)", "setting": "male mice, 50 mg/kg/BID oral, treatment day 1 to 8, mean", "result": 3.28, "unit": "%"},
      {"measurement": "Food consumption, Average Feed Intake/Animal", "setting": "male mice, 50 mg/kg/BID oral, treatment day 1 to 11", "result": 9.4, "unit": "g/animal"},
      {"measurement": "Body weight gain (%)", "setting": "male mice, 50 mg/kg/BID oral, treatment day 1 to 11, mean", "result": 3.60, "unit": "%"},
      {"measurement": "Food consumption, Average Feed Intake/Animal", "setting": "male mice, 50 mg/kg/BID oral, treatment day 1 to 14", "result": 11.0, "unit": "g/animal"},
      {"measurement": "Body weight gain (%)", "setting": "male mice, 50 mg/kg/BID oral, treatment day 1 to 14, mean", "result": 6.21, "unit": "%"},
      {"measurement": "body weight and body weight gain", "setting": "[4]", "result": "did not change"},
      {"measurement": "clinical signs", "setting": "[4]", "result": "No abnormal clinical signs were detected"},
      {"measurement": "survival", "setting": "[4]", "result": "all animals survived to study termination"},
      {"measurement": "tolerable dose", "setting": "twice daily for 14 consecutive days, oral, C57BL/6 mice", "result": "> 50", "unit": "mg/kg/BID"}
    ]}
  ]
}
